Reference: PubChem BioAssay AID1411 (The Scripps Research Institute Molecular Screening Center, 2008)
Calls of active or inactive are those of the source. The rule behind the calls is not given here.

Target: Signal transducer and activator of transcription 1-alpha/beta (Homo sapiens) (UniProt P42224)
Test: STAT1 transcription blockade – cell-based, NIH 3T3, luciferase reporter, counter-screen for STAT3 inhibitor project, dose response (AID 1411)
Settings: NIH 3T3 fibroblasts, counterscreen

Chain of Signal transducer and activator of transcription 1-alpha/beta (Homo sapiens) (P42224 whole entry, looked up): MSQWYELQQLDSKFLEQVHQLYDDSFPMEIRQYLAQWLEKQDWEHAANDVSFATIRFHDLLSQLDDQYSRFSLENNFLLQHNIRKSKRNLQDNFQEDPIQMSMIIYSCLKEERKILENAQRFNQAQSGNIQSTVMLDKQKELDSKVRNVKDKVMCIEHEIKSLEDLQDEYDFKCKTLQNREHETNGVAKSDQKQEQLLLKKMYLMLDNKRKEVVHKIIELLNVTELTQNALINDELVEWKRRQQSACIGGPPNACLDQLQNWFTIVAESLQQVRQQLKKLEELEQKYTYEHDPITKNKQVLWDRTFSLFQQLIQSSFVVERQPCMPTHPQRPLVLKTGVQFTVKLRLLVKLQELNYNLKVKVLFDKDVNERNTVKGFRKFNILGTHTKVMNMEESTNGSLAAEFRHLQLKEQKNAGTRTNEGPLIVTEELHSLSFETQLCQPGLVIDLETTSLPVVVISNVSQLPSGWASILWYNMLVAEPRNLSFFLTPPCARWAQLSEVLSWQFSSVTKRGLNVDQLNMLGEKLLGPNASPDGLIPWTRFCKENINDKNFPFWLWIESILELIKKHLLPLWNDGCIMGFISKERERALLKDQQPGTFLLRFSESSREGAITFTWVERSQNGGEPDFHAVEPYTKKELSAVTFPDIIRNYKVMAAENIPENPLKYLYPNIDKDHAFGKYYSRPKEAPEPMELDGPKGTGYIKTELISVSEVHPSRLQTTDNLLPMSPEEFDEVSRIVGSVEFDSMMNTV

Compound | IC50
Cc1cccc(-c2nc3cc(NC(=O)C4CCCO4)ccc3o2)c1 (stereo not drawn) | inactive
CN1/C(=C\C(=O)C[n+]2ccc(C(=O)c3ccccc3)cc2)C(C)(C)c2ccccc21 | > 55.7 µM (inactive)
CCC(C)(C)c1ccc(OCCCC[n+]2cccc(C)c2)c(C(C)(C)CC)c1 | > 55.7 µM (inactive)
O=C(COC(=O)c1n[nH]c2ccccc12)Nc1ccc(S(=O)(=O)N2CCCC2)cc1 | > 55.7 µM (inactive)
Clc1ccc(OCc2cc(-c3ccccc3)no2)c(Cl)c1 | inactive
Cc1ccc(Cl)cc1N1CCN(C(=O)COc2ccc(S(=O)(=O)NC(C)C)cc2)CC1 | > 55.7 µM (inactive)
O=C1CCCN1c1ccc(S(=O)(=O)N2CCC(c3ccccc3)CC2)cc1 | > 55.7 µM (inactive)
NC(=O)C1CCN(c2ccc(S(=O)(=O)N3CCC(Cc4ccccc4)CC3)cn2)CC1 | > 55.7 µM (inactive)
COc1ccc(Br)cc1/C(C)=N/NC1=NCCN1 | > 55.7 µM (inactive)
CN(C)S(=O)(=O)Oc1cccc(C(=O)Nc2ccc(Cl)cc2)c1 | > 55.7 µM (inactive)
O=C(Nc1ccc(Oc2ccccc2)cc1)C1CCN(c2c3c(nc4ncnn24)CCC3)CC1 | > 55.7 µM (inactive)
Cc1ccccc1OCCCCn1cnc2ccccc21 | > 55.7 µM (inactive)
CCN(CC)c1ccc(NC(=O)CN2C(=O)CSc3ncccc32)c(C)c1 | > 55.7 µM (inactive)
O=C(NC1CC1)c1cc2c(s1)-c1ccccc1OC2 | > 55.7 µM (inactive)
COc1ccc(-c2nn(C)c(=O)c3ccccc23)cc1NC(=O)COc1ccc(C)cc1 | inactive
Cc1nc2ccccc2cc1OCc1ccc(F)cc1 | > 55.7 µM (inactive)
O=C1c2ccc(Br)cc2C(=O)N1c1ccc(Cc2ccncc2)cc1 | > 55.7 µM (inactive)
COc1ccccc1OCC(=O)c1[nH]c(C)c(C(C)=O)c1C | > 55.7 µM (inactive)
Cn1c(CN2CCCCC2)nc2cc(NC(=O)c3cccc(Br)c3)ccc21 | > 55.7 µM (inactive)
O=C(Nc1cccc(O)c1)C(=O)Nc1ccccn1 | inactive
Cc1cc(C)n(Cc2ccc(NC(=O)c3ccc(COc4ccccc4Br)cc3)cc2)n1 | > 55.7 µM (inactive)
CC(=O)c1ccc(N=Nc2ccc(C)cc2)cc1 | inactive
Cc1nc2ccccc2cc1OCc1ccccc1 | > 55.7 µM (inactive)
Cc1cc(NC(=O)c2cc(-c3cccs3)on2)nn1Cc1ccc(Cl)cc1 | > 55.7 µM (inactive)

Compound | IC50
Cc1ccc(-c2cn3cc([N+](=O)[O-])ccc3n2)cc1 | > 18.6 µM (inactive)
CN1/C(=C\C(=O)C[n+]2ccc3ccccc3c2)C(C)(C)c2ccccc21 | > 55.7 µM (inactive)
CC1CCC2C(=O)N(c3ccccc3OC(=O)c3ccccc3)C(=O)C2C1 (stereo not drawn) | > 55.7 µM (inactive)
CCOC(=O)c1oc2ccc(S(=O)(=O)Nc3ccc4c(c3)n(C)c(=O)n4C)cc2c1C | inactive
O=C1C2C3c4ccccc4C(c4ccccc43)[C@@H]2c2nc3ccccc3n21 (stereo partly drawn) | > 55.7 µM (inactive)
O=C(Oc1ccccc1N1C(=O)C2CCCCC2C1=O)c1ccccc1 (stereo not drawn) | > 55.7 µM (inactive)
O=C(Nc1ccc(N2CCOCC2)nc1)c1ccc(C(F)(F)F)cc1 | > 55.7 µM (inactive)
CCCNC(=O)c1ccc(-c2nc3ccccc3s2)s1 | inactive
COC(=O)Oc1ccc(/C=N/NC(=O)CSCc2ccccc2Br)cc1OC | > 55.7 µM (inactive)
O=c1c2c(nc3n1CCCCC3)sc1c(O)cccc12 | > 55.7 µM (inactive)
O=C(Oc1cccc(Nc2ncnc3ccccc23)c1)c1ccccc1Cl | > 55.7 µM (inactive)
CC1CCCCC1NS(=O)(=O)c1ccc(S(=O)(=O)NCc2ccncc2)cc1 (stereo not drawn) | > 55.7 µM (inactive)
O=C(Nc1cccc(S(=O)(=O)Nc2ccccc2Cl)c1)c1ccc(Cl)nc1 | > 55.7 µM (inactive)
Cc1nc(CNS(=O)(=O)c2ccc(Oc3ccccc3)cc2)cs1 | > 55.7 µM (inactive)
CCOC(=O)c1ccc(NC(=O)c2ccc(CN3CCOCC3)cc2)cc1 | > 55.7 µM (inactive)
O=S(=O)(c1ccc2c(c1)OCCO2)N1CCC(c2nc3ccccc3s2)CC1 | > 55.7 µM (inactive)
O=C(C1CCN(c2nc3ccc(Br)cc3s2)CC1)N1CCC2(CC1)OCCO2 | > 55.7 µM (inactive)
CN(C)S(=O)(=O)c1ccc(C(=O)Nc2nc(-c3cccs3)cs2)cc1 | > 55.7 µM (inactive)
CCOc1ncccc1C(=O)OCC(=O)Nc1ccc(-c2nc3ccc(C)cc3s2)cc1 | inactive
Cc1nc2sccn2c1-c1csc(NCc2ccccc2)n1 | > 55.7 µM (inactive)
CC(=O)N1CCc2cc(S(=O)(=O)NC3CCCc4ccccc43)ccc21 (stereo not drawn) | > 55.7 µM (inactive)
CCCCOc1ccc(C(=O)Nc2ccncc2)cc1 | > 55.7 µM (inactive)
Cc1cc(OCC(=O)Nc2ccncc2)cc(C)c1Br | > 55.7 µM (inactive)
COc1ccc(CC(=O)Nc2cccc(SC)c2)cc1OC | > 55.7 µM (inactive)

Compound | IC50
Cc1csc(NC(=O)c2cc3c(s2)CCCC3)n1 | inactive
O=C(Nc1ccc(N2CCN(C(=O)c3ccco3)CC2)c(Cl)c1)c1cc2ccccc2o1 | inactive
Cc1ccsc1/C=C1\CCc2ccccc2C1=O | 7.89 µM
c1ccc(CC2CCN(c3ncnc4sccc34)CC2)cc1 | > 55.7 µM (inactive)
C[C@H]1O[C@@H](O[C@H]2[C@@H](O)C[C@H](O[C@H]3[C@@H](O)C[C@H](O[C@H]4CC[C@@]5(C)[C@H](CC[C@@H]6[C@@H]5C[C@@H](O)[C@]5(C)[C@@H](C7=CC(=O)OC7)CC[C@]65O)C4)O[C@@H]3C)O[C@@H]2C)C[C@H](O)[C@@H]1O | > 55.7 µM (inactive)
Nc1cc(-c2ccccc2)nn1Cc1ccc(Cl)cc1 | > 55.7 µM (inactive)
CCOC(=O)C1=C(Cc2ccc(C)cc2)C(=O)c2ccccc2C1=O | > 55.7 µM (inactive)
O=C(Nc1ccc(Cc2ccncc2)cc1)c1ccc(S(=O)(=O)N2CCOCC2)cc1 | > 55.7 µM (inactive)
Clc1ccc2ncc(-c3nnnn3-c3ccccc3)c(-c3ccccc3)c2c1 | > 55.7 µM (inactive)
COc1ccc2cc(-c3cc(C(=O)OCC(=O)Nc4c(C)n(C)n(-c5ccccc5)c4=O)c4ccccc4n3)ccc2c1 | inactive
O=C(Nc1nc(-c2ccc(Cl)s2)cs1)c1ccncc1 | > 55.7 µM (inactive)
CC(C)Cn1c(N)c(C(=O)CSc2ccccc2)c(=O)n(C)c1=O | > 55.7 µM (inactive)
COC(=O)c1nn(-c2ccc3c(c2)CCN3C(C)=O)cc1O | 9.87 µM
O=C1C2C3c4ccccc4C(c4ccccc43)C2c2nc3ccccc3n21 (stereo not drawn) | > 55.7 µM (inactive)
O=C(Nc1ccn(Cc2ccccc2F)n1)c1ccc(COc2ccc(Br)cc2)cc1 | > 55.7 µM (inactive)
C[C@H]1O[C@@H](O[C@H]2[C@@H](O)C[C@H](O[C@H]3[C@@H](O)C[C@H](O[C@H]4CC[C@@]5(C)[C@H](CC[C@@H]6[C@@H]5CC[C@]5(C)[C@@H](C7=CC(=O)OC7)CC[C@]65O)C4)O[C@@H]3C)O[C@@H]2C)C[C@H](O)[C@@H]1O | > 55.7 µM (inactive)
COc1ccc(NS(=O)(=O)c2ccc(NC(=O)c3ccc(N(C)S(C)(=O)=O)cc3)cc2)cc1 | > 55.7 µM (inactive)
COc1ccc(CC(=O)Nc2cccc(-c3nnc(-c4cccc(C)c4)o3)c2)cc1OC | inactive
Cc1ccc(-n2ncc3c(SCc4cccnc4)ncnc32)c(C)c1 | > 55.7 µM (inactive)
O=C(Nc1ccncc1)c1ccc2c(c1)C(=O)N(C1CCCCC1)C2=O | > 55.7 µM (inactive)
O=C(Nc1nccs1)c1ccc(S(=O)(=O)NCC2CCCCC2)cc1 | > 55.7 µM (inactive)
O=C(Nc1ccncc1)c1ccc(-c2ccccc2)cc1 | > 55.7 µM (inactive)
Cn1c(=O)oc2cc(S(=O)(=O)N3CCCC(C(=O)N4CC=C(c5ccccc5)CC4)C3)ccc21 (stereo not drawn) | > 55.7 µM (inactive)
Nc1cc(-c2ccc(Br)cc2)nn1Cc1ccccc1 | > 55.7 µM (inactive)

Compound | IC50
C[C@H]1CCC[C@@H](O)CCC/C=C/c2cc(O)cc(O)c2C(=O)O1 | > 55.7 µM (inactive)
CC(=O)Nc1ccc(-c2csc(Nc3ccc(Cl)cn3)n2)cc1 | > 55.7 µM (inactive)
CCOC(=O)c1sc2nc(CC(=O)OC)nc(NCc3ccc(Cl)cc3)c2c1C | > 55.7 µM (inactive)
CC(=O)c1cn(CC(=O)Nc2ccccc2C)c2ccccc12 | > 55.7 µM (inactive)
O=C(Nc1ccn(Cc2ccccc2F)n1)c1ccc(COc2ccccc2Cl)cc1 | > 55.7 µM (inactive)
CCc1c(C)c2ccc(OCC(=O)OC(C)C)c(C)c2oc1=O | > 55.7 µM (inactive)
Cc1ccc(S(=O)(=O)N(C)c2ccc(C(=O)N3CCN(Cc4ccc5c(c4)OCO5)CC3)cc2)cc1 | > 55.7 µM (inactive)
CCCOc1ccc(CSc2nc3ccccc3[nH]2)cc1 | > 55.7 µM (inactive)
COc1cc(OC)cc(C(=O)Nc2ccc(-c3nc4ccccc4o3)cc2)c1 | > 55.7 µM (inactive)
COc1ccc(/C=N/NC(=S)Nc2ccccc2[N+](=O)[O-])cc1O | > 55.7 µM (inactive)
O=C(CSc1ccc2ccccc2c1)Nc1ccncc1 | > 55.7 µM (inactive)
C[C@@H]1O[C@@H](O[C@H]2C[C@@H](O)[C@]3(CO)[C@H]4[C@H](O)C[C@]5(C)[C@@H](C6=CC(=O)OC6)CC[C@]5(O)[C@@H]4CC[C@]3(O)C2)[C@H](O)[C@H](O)[C@H]1O | > 55.7 µM (inactive)
O=C(Nc1cccc(Cl)c1)Nc1ccnc(-c2cccnc2)n1 | > 55.7 µM (inactive)
COc1cc(OC)cc(C(=O)Nc2nnc(NC(=S)Nc3ccccc3)s2)c1 | > 55.7 µM (inactive)
CCOc1cc(C(=S)N2CCOCC2)ccc1OS(=O)(=O)c1ccc(NC(C)=O)cc1 | > 55.7 µM (inactive)
COc1ccc(/C=N/NC(=S)Nc2cccc(C(=O)O)c2)cc1 | inactive
CC[n+]1ccccc1/C=C/c1ccc(N(C)C)cc1 | > 55.7 µM (inactive)
CNc1ccccc1C(C)(C)c1cc(-c2ccc(F)cc2)no1 | > 55.7 µM (inactive)
Cc1ccc2c(C)nc(Nc3nc(CSc4nc5ccccc5[nH]4)cc(=O)[nH]3)nc2c1 | > 55.7 µM (inactive)
O=C(COc1ccc2ccccc2c1)Nc1ccncc1 | > 55.7 µM (inactive)
Cc1ccc(-n2nnnc2SCn2nnc3ccccc3c2=O)c(C)c1 | > 55.7 µM (inactive)
